“Also recorded” adds a separate entry of the source. Ends that are not written are not given here.
What was measured:
[1] = test system: collagen I; test: Collagen I immunofluorescence labeling in ex vivo human skin sections; type: cell-based; settings: 10^−6 M applied topically, 24 or 48 hours, vs control conditions
Protocol: (§1) The human skin samples are placed in culture at the air/liquid interface. A 10^−6M solution of SEQ ID No. 5 peptide or SEQ ID No. 9 peptide is applied topically, then the samples are incubated for 24 hours or 48 hours. These skin samples are then fixed with formaldehyde, then embedded in paraffin or fixed with OCT by freezing at −20° C. Sections of 3 to 4 μm are then produced (6 μm for cold sections). The immunolabeling of samples embedded in paraffin is performed after unmasking specific sites. The immunolabeling of the samples embedded in OCT is performed after fixation at 37° C. and with cold acetone.
(§2) The fixed cells or sections are incubated in the presence of a specific rabbit collagen I polyclonal antibody (Rockland, Ref: 600-401-103) or a specific rabbit collagen III polyclonal antibody (Rockland, Ref: 600-401-105), then a secondary antibody coupled to a fluorescent marker. After mounting in an ad hoc medium, the cells are then examined with the Epi-fluorescence microscope (Nikon Eclipse E600 microscope).

[2] = test system: dermatopontin; test: Dermatopontin immunofluorescence labeling in normal human fibroblast cultures; type: cell-based; settings: normal human fibroblasts, peptide 10^−6 M once daily, 24 or 48 hours, vs control conditions
Protocol: (§3) The objective of this study is to determine the influence of the SEQ ID No. 5 peptide and of the SEQ ID No. 9 peptide on the expression of dermatopontin in fibroblasts. For this, specific immunofluorescence labelings were performed on normal human fibroblast cultures and on skin kept in culture ex vivo.
Normal human fibroblasts are cultivated for 24 or 48 hours and treated once daily with a 10^−6M solution of peptide SEQ ID No. 5 or of peptide SEQ ID No. 9. The cells are then washed and fixed with 3.7% formaldehyde for 10 minutes at ambient temperature.
(§4) The fixed cells or the sections are incubated in the presence of a specific rabbit dermatopontin polyclonal antibody (Proteintech group, Ref: 10537-1-AP), then a secondary antibody, coupled to a fluorescent marker. After mounting in an ad hoc medium, the cells are then examined with an Epi-fluorescence microscope (Nikon Eclipse E600 microscope).

[3] = test system: collagen I; test: Collagen I immunofluorescence labeling in normal human fibroblast cultures; type: cell-based; settings: 10^−6 M once per day, 24 or 48 hours, vs control conditions
Protocol: (§5) The objective of this study is to determine the influence of the SEQ ID No. 5 peptide on the expression of molecules of the dermal extracellular matrix. For this, the expression of collagens I and III in human fibroblasts obtained from the dermis was studied.
(§6) Normal human fibroblasts are cultivated for 24 or 48 hours and treated once per day with a 10^−6M solution of SEQ ID No. 5 peptide or SEQ ID No. 9 peptide. The cells are then washed and fixed with formaldehyde at 3.7% for 10 minutes at ambient temperature.
as §2

[4] = test system: collagen III; test: Collagen III immunofluorescence labeling in normal human fibroblast cultures; type: cell-based; settings: 10^−6 M once per day, 24 or 48 hours, vs control conditions
Protocol: as §5, §6, §2

[5] = test system: fibronectin; test: Fibronectin immunofluorescence labeling in human dermal fibroblast cultures; type: cell-based; settings: human dermal fibroblasts, 10^−6 M once daily, vs control cells
Protocol: (§7) The objective of this study is to determine the influence of the SEQ ID No. 5 peptide on the expression of fibronectin, a protein of the extracellular matrix synthesized by the fibroblasts. For this, specific immunofluorescence labelings were performed on fibroblast cultures and on ex vivo skin cultures.
Human dermal fibroblasts in culture are treated once daily with a 10^−6 solution M of SEQ ID No. 5 peptide (the medium containing the active agent is changed every 24 hours). The cells are then washed and fixed with 3.7% formaldehyde for 10 minutes at ambient temperature.
(§8) The fixed cells or the sections are incubated in the presence of a specific rabbit fibronectin polyclonal antibody (Sigma, Ref: F-3648), then a secondary antibody, coupled with a fluorescent marker. The cells are then examined with the Epi-fluorescence microscope (Nikon Eclipse E600 microscope).

[6] = test system: fibronectin; test: Fibronectin immunofluorescence labeling in ex vivo human skin cultures; type: cell-based; settings: 10^−6 M applied topically, 24 or 48 hours
Protocol: as §7
The human skin samples are placed in culture at the air/liquid interface. A 10^−6 M solution SEQ ID No. 5 peptide or SEQ ID No. 9 peptide is to be applied topically, then the samples are incubated for 24 or 48 hours. These skin samples are then fixed with formaldehyde, then embedded in paraffin or fixed with OCT by freezing at −20° C. Sections of 3 to 4 μm are then produced (6 μm for cold sections). The immunolabeling of the samples embedded in paraffin is performed after unmasking specific sites. The immunolabeling of the samples embedded in OCT is performed after fixation at 37° C. and with cold acetone.
as §8

[7] = test system: skins cultivated ex vivo; test: Ultrastructure (transmission electron microscopy) of skins cultivated ex vivo; type: cell-based; settings: ex vivo skin cultures, 10^−6 M, 48 hours
Protocol: (§9) The objective of this study is to observe the subcellular structures of keratinocytes and fibroblasts treated by the SEQ ID No. 5 peptide at 10^−6 M.
(§10) NHEK or fibroblasts are cultivated in a dish or in a Transwell system, or skins cultivated ex vivo are treated with a 10^−6 M solution of SEQ ID No. 5 peptide for 48 hours (the medium is changed every 24 hours). The skin cells or samples are washed with PBS, then are fixed by Karnosky hypertonic fixation (4% paraformaldehyde, 5% glutaraldehyde in a 0.08M phosphate buffer), 1 hour at ambient temperature, then 24 hours at 4° C. The cells are detached from the substrate by scraping, centrifuged for 5 minutes at 1000 rpm at 4° C. The supernatant is removed and a 0.1 M sodium cacodylate buffer is deposited on the pellet. The cells are mixed with 2% agar then post-fixed by osmium tetroxide for 1 hour. The specimens are then dehydrated by successive passages in an alcohol series (50 to 100%). The skin cells or samples are then coated with a resin. The polymerization is performed for around 12 hours at 60° C. Semi-fine sections of 0.5 μm are performed with the ultra-microtome. The sections are deposited on a subbed slide under heat then stained with toluidine blue. The slides are then dehydrated again and mounted in a suitable medium. […]

[8] = test system: dermal fibroblasts; test: Ibidi in vitro healing model (gap filling), fibroblasts; type: cell-based, human
From the text: (§11) The objective of this study is to determine the regenerating effect of the SEQ ID No. 5 peptide on dermal fibroblasts and normal human keratinocytes (NHEK). To do this, the Ibidi in vitro healing model (Integrated Bio Diagnostics, Munich, Germany) was used.
(§12) This test consists of maintaining a cell-free area at the middle of a cell layer and of evaluating the time taken by the cells arranged on either side of the “scar” to migrate or proliferate and fill the gap. The self-adhesive silicone culture inserts are placed at the base of a well of a culture plate. These inserts have the special feature of being comprised of two distinct chambers separated by an impermeable membrane with a thickness of 500 μm. Each of the two chambers is seeded with cells of the same cell type and cultivated until confluency. The insert is then removed with sterile tweezers, creating an acellular area 400 μm wide between the two cell layers. The cells are then treated with a 10^−6 M or a 3×10^−6M solution of SEQ ID No. 5 peptide added to the culture medium, with renewal of the peptide every 24 hours. Phase-contrast microscopy observations (Olympus CK40 microscope X5 connected to an Olympus E-510 camera) were performed at different times (0, 6, 24, 30 and 48 hours) until the proliferation and migration process results in the filling of the gap.

[9] = test system: fibroblasts; test: Ultrastructure (transmission electron microscopy) of fibroblasts in culture; type: cell-based; settings: 10^−6 M, 48 hours
Protocol: as §9, §10

[10] = test system: normal human keratinocytes (NHEK); test: Ibidi in vitro healing model (gap filling), keratinocytes; type: cell-based
From the text: as §11, §12

[11] = test system: elastic fibers present in the dermis; test: Elastic fiber staining (Elastika van Gieson) of ex vivo human skin irradiated by UVA; type: cell-based; settings: 10^−6 M topically 48 hours before UVA 5 J/cm^2, vs untreated irradiated controls
Protocol: The objective of this study is to determine the influence of the SEQ ID No. 5 peptide on the elastic fibers present in the dermis. To do this, specific staining of the elastic fibers was performed on skin samples cultivated ex vivo.
Human skin samples are placed in culture at the air/liquid interface. A 10^−6 M solution of SEQ ID No. 5 peptide is applied topically, then the samples are incubated for 48 hours before being irradiated by UVA at 5 J/cm^2. Untreated irradiated controls are produced in parallel.
These skin samples are then fixed with formaldehyde, then embedded in paraffin. Sections of 4 μm are then produced. These skin sections are successively removed from the paraffin, then rehydrated in different xylene and alcohol baths. the elastin fibers are stained using an Elastika van Gieson staining kit (VWR, Ref: 1.15974). The stained skin sections are dehydrated then mounted in the Eukitt mounting medium and observed under a microscope.

[12] = test system: collagen III; test: Collagen III immunofluorescence labeling in ex vivo human skin sections; type: cell-based; settings: 10^−6 M applied topically, 24 or 48 hours, vs control conditions
Protocol: as §1, §2

[13] = test system: NHEK; test: Ultrastructure (transmission electron microscopy) of keratinocytes in culture; type: cell-based, human; settings: 10^−6 M, 48 hours, vs untreated control
Protocol: as §9, §10

[14] = test system: dermatopontin; test: Dermatopontin immunofluorescence labeling in human skin kept in culture ex vivo; type: cell-based; settings: 10^−6 M solution applied topically, 24 or 48 hours
Protocol: as §3
The human skin samples are placed in culture at the air/liquid interface. A 10^−6M solution of peptide SEQ ID No. 5 or of peptide SEQ ID No. 9 is applied topically, then the samples are incubated for 24 hours or 48 hours. These skin samples are then fixed with formaldehyde then embedded in paraffin or fixed with OCT, by freezing at −20° C. Sections of 3 to 4 μm are then produced (6 μm for the cold sections). The immunolabeling of the samples embedded in paraffin is performed after unmasking specific sites. The immunolabeling of samples embedded in OCT is performed after fixation at 37° C. and with cold acetone.
as §4

For “Arg-Glu-Trp-Gln-Phe-Tyr-Cys(Cys)-(NH2) [SEQ ID No. 5]”, the “expression of collagen I (immunofluorescence)” value [1] was “more intense fluorescence”, the “expression of dermatopontin (immunofluorescence)” value (from here on “expression of dermatopontin”) [2] was “more intense fluorescence; also recorded: very substantially stimulate the expression of dermatopontin” and the “expression of collagen I (immunofluorescence)” value [3] was “more intense fluorescence; also recorded: increases the expression of collagen I”. For the same substance, the “expression of collagen III (immunofluorescence)” value [4] was “more intense fluorescence; also recorded: increases the expression”, the “expression of fibronectin (immunofluorescence)” value [5] was “more intense cytoplasmic fluorescence; also recorded: very substantially stimulates the expression of fibronectin” and the “densification of the area supporting the dermoepidermal junction (fibronectin immunofluorescence)” value [6] was “stimulates the densification of the area supporting the dermoepidermal junction”. For the same substance, the “cellular contacts between the cells of the basal layer (ultrastructure)” value [7] was “narrower cellular contacts between the cells of the basal layer; also recorded: increases the intercellular contacts of the basal keratinocytes”, the “gap filling / proliferation and migration by comparison with control conditions” value ([8]; fibroblasts cultivated in the presence of the peptide) was “filled the gap faster; also recorded: stimulates the proliferation and migration” and the “dose dependence of gap filling” value ([8]; fibroblasts, 3×10^−6 M compared with 10^−6 M) was “the gap fills faster”. The “time to total filling of the gap” value ([8]; human fibroblasts, 10^−6 M, 400 μm gap, control gap not yet filled at the same time) was 48 h, the “caveolar bodies, rough endoplasmic reticulum and Golgi apparatus (ultrastructure)” value ([9]; vs control cells) was “substantially more developed” and the “secretion / synthesis of components of the extracellular matrix (ultrastructure)” value ([9]; vs untreated control cells) was “more intense secretion of components of the extracellular matrix; also recorded: increase in the synthesis of components of the extracellular matrix”. For the same substance, the “gap filling / proliferation and migration by comparison with control conditions” value ([10]; NHEK cultivated in the presence of the peptide) was “filled the gap faster; also recorded: stimulates the proliferation and migration”, the “time to total filling of the gap” value ([10]; human keratinocytes, 10^−6 M, 400 μm gap, control gap not yet filled at the same time) was 30 h and the “dose dependence of gap filling” value ([10]; keratinocytes, 3×10^−6 M compared with 10^−6 M) was “the gap fills faster”. The “degradation of the elastic fibers after UV irradiation” value [11] was “less degradation of the elastic fibers; also recorded: preserves the elastic fibers”, the “organization of the elastic fibers after UV irradiation” value [11] was “better preservation of the organization of the elastic fibers” and the “expression of collagen III (immunofluorescence)” value [12] was “more intense fluorescence”. The “intercellular contacts between keratinocytes (ultrastructure)” value ([13]; cultures in a TRANSWELL system) was “more cohesive”, the “organelles / mitochondria in keratinocytes (ultrastructure)” value ([13]; keratinocytes in culture) was “enrichment in organelles, and in particular mitochondria; also recorded: increase in the density of mitochondria” and the “expression of dermatopontin” value [14] was “more intense fluorescence at the dermis”.
For “Asp-Arg-Glu-Trp-Gln-Phe-Tyr-Cys-NH2 (DREWQFYC-NH2) [SEQ ID No. 9]”, the “expression of dermatopontin” value [2] was “more intense fluorescence; also recorded: very substantially stimulate the expression of dermatopontin” and the “expression of dermatopontin” value [14] was “more intense fluorescence at the dermis”.

— US20130288978A1, “DERMATOPONTIN-ACTIVATING PEPTIDES AND COSMETIC COMPOSITIONS INCLUDING SAME” (ISP INVESTMENTS INC., priority 2010, published 2013)
